Data set [1] deals with Puccinia recondita. Put plainly: In vivo preventive test on Puccinia recondita (brown rust on wheat). Particulars: 500 ppm, wheat plants sprayed 24 h before contamination, graded 12 days after contamination. Here is the method:
Wheat plants (“Scipion” variety), sown in starter cups on a 50/50 peat soil-pozzolana substrate and grown at 22° C., are treated at the 1-leaf stage (10 cm height) by spraying with the active ingredient prepared as described above. Plants, used as controls, are treated with the mixture of acetone/tween/DMSO/water not containing the active material. After 24 hours, the plants are contaminated by spraying the leaves with an aqueous suspension of Puccinia recondita spores (100 000 spores per ml). The spores are collected from an infected plant and are suspended in water to containing 2.5 ml/l of Tween 80 at 10%. […] Grading (% of efficacy) is carried out 12 days after the contamination, in comparison with the control plants.

Data set [2] deals with Uromyces appendiculatus. The experiment in a line: In vivo preventive test on Uromyces appendiculatus (bean rust). Particulars: preventive, bean plants, dose of 500 ppm, grading 11 days after contamination. Here is the method:
Bean plants (“Saxa” variety), sown in starter cups on a 50/50 peat soil-pozzolana substrate and grown at 24° C., are treated at the 2-leaf stage (9 cm height) by spraying with the active ingredient prepared as described above. Plants, used as controls, are treated with the mixture of acetone/tween/DMSO/water not containing the active material. After 24 hours, the plants are contaminated by spraying the leaves with an aqueous suspension of Uromyces appendiculatus spores (150 000 spores per ml). The spores are collected from infected plants and are suspended in water containing 2.5 ml/1 of Tween 80 at 10%. […] Grading (% of efficacy) is carried out 11 days after the contamination, in comparison with the control plants.

Data set [3] in a line: logP by HPLC on reversed phase columns (EEC directive 79/831 Annex V.A8). In kind it is physicochemical. The conditions noted are these: method [a]: LC-MS at pH 2.7, 0.1% formic acid in water / acetonitrile.
The mark [4] stands for this setting: compounds of formula (I), Table 1.
Where [5] appears, read: amines of formula (III-a), Table 2.

For the compound `CCC1Cc2c(NC(=O)c3c(C(F)(F)F)nn(C)c3C)cccc2C1(C)C` (stereo not drawn) [Example 49], the Eff. % worked out at 94% in data set [1] and 99% in data set [2]. Moreover, the logP in data set [3] (setting [4]) was 4.3[a].

On to `Cc1c(C(=O)Nc2cccc3c2CC(C(C)C)C3(C)C)c(C(F)(F)F)nn1C` (stereo not drawn) [Example 54], for which the Eff. % was found to be 81% in data set [1] and 83% in data set [2]. Also, the logP in data set [3] (setting [4]) is 4.66[a].

Take `Cc1c(C(=O)Nc2cccc3c2CC(C)C3(C)C)c(C(F)(F)Cl)nn1C` (stereo not drawn) [Example 72]: the logP in data set [3] (setting [4]) was 3.99[a].

`CC1Cc2c(N)cccc2C1C` (stereo not drawn) [Example III-a-13]: the logP in data set [3] (setting [5]) was 1.44[a].

`Nc1cccc2c1CC1(CCCC1)C2` [III-a-4]: the logP in data set [3] (setting [5]) was 2.1[a].

Turning to `CCC1Cc2c(N)cccc2C1(C)C` (stereo not drawn) [Example III-a-17], in data set [3] (setting [5]), the logP was 2.47[a].

For the compound `Cc1nn(C)c(Cl)c1C(=O)Nc1cccc2c1CC(C)C2(C)C` (racemic) [Example 80], the Eff. % in data set [1] was 98%; in data set [2], 100%. Moreover, the logP in data set [3] (setting [4]) was 3.83[a].

On to `CCCc1nn(C)cc1C(=O)Nc1cccc2c1CC(C(C)C)C2(C)C` (stereo not drawn) [Example 47], for which, in data set [3] (setting [4]), the logP was 4.51[a].

For `Cc1nn(C)c(F)c1C(=O)Nc1cccc2c1CC(C)(C)C2` [Example 44], the results for the Eff. % in data set [1] and in data set [2] were 78% and 98%, respectively.

`CC(C)C1Cc2cccc(N)c2C1C` (stereo not drawn) [III-a-9]: in data set [3] (setting [5]), the logP was 2.9[a].

As to `CC1Cc2c(NC(=O)c3c(C4CC4)nn(C)c3Cl)cccc2C1(C)C` (racemic) [Example 78], in data set [3] (setting [4]), the logP was 4.46[a].

For the compound `CCc1c(C(=O)Nc2cccc3c2CC(CC)C3(C)C)cnn1C` (racemic) [Example 63], in data set [3] (setting [4]), the logP was 3.83[a].

On to `CC1Cc2c(NC(=O)c3c(C(F)(F)F)nn(C)c3F)cccc2C1(C)C` (racemic) [Example 83], for which the Eff. % in data set [1] turned out to be 98%; in data set [2] it was 100%. Besides, in data set [3] (setting [4]), the logP was 4.09[a].

As to `CC1Cc2c(NC(=O)c3cn(C)nc3C(F)(F)C(F)(F)F)cccc2C1(C)C` (racemic) [Example 85], the logP in data set [3] (setting [4]) was 4.21[a].

For `CCC1Cc2c(NC(=O)c3cnn(C)c3C)cccc2C1(C)C` (stereo not drawn) [Example 59], the Eff. % in data set [1] was determined as 89%; in data set [2], 100%. Also, the logP in data set [3] (setting [4]) is 3.42[a].

In the case of `CC1Cc2c(NC(=O)c3c(C(F)(F)F)nn(C)c3C(F)F)cccc2C1(C)C` (racemic) [Example 81], in data set [3] (setting [4]), the logP was 4.09[a].

Consider `CCc1c(C(=O)Nc2cccc3c2CC(C(C)C)C3(C)C)cnn1C` (stereo not drawn) [Example 46], for which, in data set [3] (setting [4]), the logP is 4.21[a].

Consider `CCCc1nn(C)c(F)c1C(=O)Nc1cccc2c1CC(C(C)C)C2(C)C` (racemic) [Example 65], for which the logP in data set [3] (setting [4]) is 5.29[a].

`CCC1(CC)Cc2c(N)cccc2C1C` (stereo not drawn) [Example III-a-18]: in data set [3] (setting [5]), the logP was 2.63[a].

Take `Cc1nn(C)c(C)c1C(=O)Nc1cccc2c1CC(C)(C)C2` [Example 43]: in data set [1], the Eff. % stood at 89%. Also, the logP in data set [3] (setting [4]) is 2.77[a].

Turning to `CC(C)c1nn(C)cc1C(=O)Nc1cccc2c1CC(C(C)C)C2(C)C` (racemic) [Example 61], in data set [3] (setting [4]), the logP was 4.56[a].

Consider `CCCc1nn(C)cc1C(=O)Nc1cccc2c1CC(C)C2(C)C` (stereo not drawn) [Example 21], for which, in data set [1], the Eff. % stood at 75%. In addition, the logP in data set [3] (setting [4]) was 3.64[a].

Take `Cc1nn(C)c(C(F)(F)Cl)c1C(=O)Nc1cccc2c1CC(C(C)C)C2(C)C` (stereo not drawn) [Example 53]: the logP in data set [3] (setting [4]) is 4.86[a].

On to `CCC1Cc2cccc(N)c2C1` (stereo not drawn) [III-a-6], for which the logP in data set [3] (setting [5]) was 1.76[a].

For the compound `CCC1Cc2c(NC(=O)c3cn(C)nc3C(C)C)cccc2C1(C)C` (racemic) [Example 67], in data set [3] (setting [4]), the logP is 4.18[a].

In the case of `CON=C1c2cccc(N)c2CC1(C)C` [III-a-12], the logP in data set [3] (setting [5]) is 2.08[a].

For the compound `CCCc1nn(C)c(F)c1C(=O)Nc1cccc2c1CC(C)C2(C)C` (stereo not drawn) [Example 19], the logP in data set [3] (setting [4]) is 4.39[a].

As to `CC(C)C1Cc2cccc(N)c2C1` (racemic) [Example III-a-1], the logP in data set [3] (setting [5]) was 2.25[a].

As for `CCc1nn(C)c(Cl)c1C(=O)Nc1cccc2c1CC(C)C2(C)C` (stereo not drawn) [Example 7], the figures for the Eff. % in data set [1] and in data set [2] were 96% and 100%, respectively. Also, in data set [3] (setting [4]), the logP is 4.31[a].

With `CCCc1nn(C)cc1C(=O)Nc1cccc2c1CC(CC)C2(C)C` (racemic) [Example 64], the logP in data set [3] (setting [4]) is 4.2[a].

Regarding `CCC1(CC)Cc2c(NC(=O)c3c(C)nn(C)c3C)cccc2C1C` (stereo not drawn) [Example 51], the logP in data set [3] (setting [4]) was 3.85[a].

For the compound `CCC1Cc2c(NC(=O)c3c(C)nn(C)c3C(F)(F)Cl)cccc2C1(C)C` (stereo not drawn) [Example 58], in data set [3] (setting [4]), the logP was 4.46[a].

Turning to `CCc1nn(C)cc1C(=O)Nc1cccc2c1CC(C)C2(C)C` (racemic) [Example 73], the Eff. % in data set [1] was found to be 88%; in data set [2], 100%. Besides, the logP in data set [3] (setting [4]) was 3.27[a].

With `CCc1nn(C)c(F)c1C(=O)Nc1cccc2c1CC(C)(C)C2C` (stereo not drawn) [Example 14], the Eff. % was found to be 98% in data set [1] and 100% in data set [2]. Also, the logP in data set [3] (setting [4]) was 3.99[a].

For `Cc1c(C(=O)Nc2cccc3c2CC(C)C3(C)C)c(C(F)(F)F)nn1C` (stereo not drawn) [Example 18], the Eff. % in data set [1] was 75%. Besides, the logP in data set [3] (setting [4]) is 3.83[a].

In the case of `CC1Cc2c(NC(=O)c3c(C(F)(F)F)nn(C)c3Cl)cccc2C1(C)C` (stereo not drawn) [Example 11], the Eff. % in data set [1] is 96%; in data set [2] it was 100%. The logP in data set [3] (setting [4]) is 4.26[a].

On to `CC1c2c(N)cccc2C(C)(C)C1C` (stereo not drawn) [Example III-a-14], for which, in data set [3] (setting [5]), the logP is 2.4[a].

Regarding `CC1Cc2c(NC(=O)c3cn(C)nc3[N+](=O)[O-])cccc2C1(C)C` (racemic) [Example 76], the logP in data set [3] (setting [4]) is 3.67[a].

`CON=C1c2cccc(NC(=O)c3c(C)nn(C)c3F)c2CC1(C)C` (mixture of isomers) [Example 34]: the Eff. % in data set [1] is 71%.

Turning to `Nc1cccc2c1CC(Cc1ccccc1)C2` (stereo not drawn) [Example III-a-8], the logP in data set [3] (setting [5]) was 2.54[a].

Take `CC(C)C1Cc2c(N)cccc2C1C` (stereo not drawn) [Example III-a-5]: the logP in data set [3] (setting [5]) is 2.34[a].

As for `Nc1cccc2c1CC(C1CCCC1)C2` (stereo not drawn) [III-a-11], in data set [3] (setting [5]), the logP was 2.94[a].

Regarding `Cc1c(C(=O)Nc2cccc3c2CC(C(C)C)C3(C)C)cnn1C` (racemic) [Example 62], the Eff. % came to 81% in data set [1] and 99% in data set [2]. Moreover, the logP in data set [3] (setting [4]) is 3.73[a].

For the compound `CCc1nn(C)cc1C(=O)Nc1cccc2c1CC(CC)(CC)C2C` (racemic) [Example 82], in data set [3] (setting [4]), the logP is 4.06[a].

In data set [1], `CON=C1c2cccc(NC(=O)c3c(C)nn(C)c3C)c2CC1(C)C` (mixture of isomers) [Example 35] yielded an Eff. % of 79%.

Regarding `CC1c2cccc(N)c2CC12CCCC2` (stereo not drawn) [Example III-a-7, 1′-methyl-1′,3′-dihydrospiro[cyclopentane-1,2′-inden]-4′-amine], the chromatographic logP in data set [3] (reversed phase HPLC columns, amines of formula (III-a), Table 2, read-out: logP) is 2.39.

Take `CC(C)c1nn(C)cc1C(=O)Nc1cccc2c1CC(C)C2(C)C` (stereo not drawn) [Example 23]: the Eff. % in data set [1] is given as 81%; in data set [2], 89%. Also, in data set [3] (setting [4]), the logP is 3.69[a].

In the case of `CC1Cc2c(N)cccc2C1(C)C` (racemic) [Example III-a-3], the logP in data set [3] (setting [5]) was 1.95[a].

`CC(C)C1Cc2c(N)cccc2C1(C)C` (racemic) [Example III-a-2]: the logP in data set [3] (setting [5]) is 2.8[a].
